In patent publication US12624031B2, “Inhibitors of ubiquitin specific peptidase 22 (USP22) and uses thereof for treating diseases and disorders” (Northwestern University, priority 2022, dated 2026):
pIC50: −log10 of the molar value.

Columns and labels:
naïve mice = assay: toxicity and Treg phenotype in naïve mice; format: in vivo
Protocol: B, FOXP3 MFI in WT and 22KO of Treg cells after treatment with 20 μg/kg of Usp22i-S02 in vivo (n=3). C, Representative flow cytometry plot of FOXP3+CD25+MFI of CD4+ peripheral cells of mice treated with 20 μg/kg of Usp22i-S 02 relative to control (n=5). D, Graphical representation of Foxp3 MFI upon Usp22i-S02 administration (n=5). E, Tumor growth curve of LLC1 cells subcutaneously injected in the flank of WT mice with or without the addition of 20 mg/kg/time of the Usp22 inhibitor starting at day 15, in 100 μL of oil (n=4). F-G, Representative flow cytometry plot and graphical representation of % infiltration of CD4+ and CD8+ T cells within the tumor (n=4). H, Representative histogram plot and graphical representation of intratumoral Treg (itTreg) Foxp3 MFI (n=4). I, MFI of itTreg suppressive markers (n=3-4). J, Percent Foxp3+IFNg+itTreg cells in control and Usp22-S02 treated mice (n=3-4). B, D-E, G, H-I Two-way ANOVA with multiple comparisons between rows was performed to determine statistical significance. J, Unpaired two tailed T test was performed to determine significance. All data are presented as mean±stdev. NS, not significant. *P<0.05, **P<0.01, ***P<0.001, ****P<0.0001.
A, Body weight of Usp22i-S02 treated mice verses DMSO treated controls over the course of treatment (n=4). A-F. Injections were twice a day for 3 consecutive days at 10 μg/kg (n=4). B, Percent of cell populations in naïve mice treated with Usp22i-S02 relative to DMSO control (n=3-4). […] D, Percent CD44^hiCD62L^lo in T cell populations gated on CD45+ cells in naïve mice treated with Usp22i-S02 relative to DMSO control (n=3). E, Percent Annexin+PI+ T cells gates on CD45+ cells in naïve mice treated with Usp22i-S02 relative to DMSO control (n=4). F-H, Organ toxicity panel (VetScan VS2 Comprehensive Diagnostic Rotor lot 1061AA2) of naïve mice treated with Usp22i-S02 relative to DMSO control (n=2-3). I, Growth curve of subcutaneously injected LLC1 in WT mice treated with Usp22i-S02 at 10 μg/kg (n=5-10). I-Q, Injections were twice a day for 5 consecutive days at 10 μg/kg. J, Weights of resected tumors at day 16 from I (n=10). K-L, Representative flow plot and graphical representation of infiltrating T cells gated on CD45+ cells (n=5). M-P, Characterization of intratumoral CD8+ T cells frome mice treated with Usp22i-S02 (n=3-5). Q, Percent of intratumoral Treg cells from mice treated with Usp22i-S02 verses DMSO control, gated on CD4+Foxp3+ from mice (n=5). A-E, I and L, Two-way ANOVA with Sidaks's multiple comparisons between rows relative to control was performed to determine statistical significance. F-H, J, and M-Q, Two-tailed unpaired t-test was performed to determine statistical significance. All data are presented as mean±stdev. NS, not significant. *P<0.05, **P<0.01, ***P<0.001, ****P<0.0001.
An important aspect of a potential immunotherapeutic is its antitumor functionality paired with low immune toxicity. To determine the toxicity of Usp22i-S02 in vivo, we first determined its effects in naïve mice.

[1] = target: human GST-USP22 with Sgf11, Sgf73 1-105 and Sus1 (Homo sapiens, UniProt Q9UPT9); assay: in vitro USP22 deubiquitination assay (re-constructed deubiquitination module); format: biochemical; conditions: customized deubiquitination assay, human GST-USP22 with Sgf11, Sgf73 1-105, Sus1; read-out: IC50 in suppressing USP22 in vitro catalytic activity
Protocol: (A) The chemical structure of S02-S106 11-((4-cyanophenyl)amino)-7,8,9,10-tetrahydrobenzo(4,5)imidazole[1,2-b]isoquinoline-6-carbonitrile, (B & C) The efficacy of USP22i-S02 analogs in inhibiting USP22 catalytic activity was determined in vitro. The representative data from a triplicate analysis of S02-S106 with S02 as a control are shown (B). The IC50 of USP22i-S02 analogs in suppressing USP22 in vitro catalytic activity are shown (C). NA, not available.
We purchased human recombinant Sgf11 and Sgf73 1-105 and Sus1 proteins from R&D Systems Inc, and re-constructed the deubiquitination activity with our human GST-USP22. The USP22 customized deubiquitination was optimized and used for in vitro screening the activity of synthetic USP22i-s02 analogs with the USP22i-s02 as a control (FIG. 12).

Sequence of human GST-USP22 with Sgf11, Sgf73 1-105 and Sus1 (Q9UPT9 whole entry): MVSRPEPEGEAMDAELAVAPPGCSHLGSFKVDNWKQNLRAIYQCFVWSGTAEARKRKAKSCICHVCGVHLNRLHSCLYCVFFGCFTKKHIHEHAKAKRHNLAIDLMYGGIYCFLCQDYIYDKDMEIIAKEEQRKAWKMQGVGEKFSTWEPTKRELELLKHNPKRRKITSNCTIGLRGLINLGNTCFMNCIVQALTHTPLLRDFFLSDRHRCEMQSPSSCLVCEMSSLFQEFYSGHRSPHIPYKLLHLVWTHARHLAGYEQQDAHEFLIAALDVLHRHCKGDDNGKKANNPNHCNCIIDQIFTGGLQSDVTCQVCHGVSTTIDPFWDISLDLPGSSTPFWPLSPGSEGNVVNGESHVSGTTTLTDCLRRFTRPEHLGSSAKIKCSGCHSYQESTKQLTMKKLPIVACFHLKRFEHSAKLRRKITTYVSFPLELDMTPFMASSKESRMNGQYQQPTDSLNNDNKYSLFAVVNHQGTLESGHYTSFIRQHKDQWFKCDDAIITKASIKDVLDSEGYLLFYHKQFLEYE
Sequence of human GST-USP22 with Sgf11, Sgf73 1-105 and Sus1 (Q14CW9 whole entry partner): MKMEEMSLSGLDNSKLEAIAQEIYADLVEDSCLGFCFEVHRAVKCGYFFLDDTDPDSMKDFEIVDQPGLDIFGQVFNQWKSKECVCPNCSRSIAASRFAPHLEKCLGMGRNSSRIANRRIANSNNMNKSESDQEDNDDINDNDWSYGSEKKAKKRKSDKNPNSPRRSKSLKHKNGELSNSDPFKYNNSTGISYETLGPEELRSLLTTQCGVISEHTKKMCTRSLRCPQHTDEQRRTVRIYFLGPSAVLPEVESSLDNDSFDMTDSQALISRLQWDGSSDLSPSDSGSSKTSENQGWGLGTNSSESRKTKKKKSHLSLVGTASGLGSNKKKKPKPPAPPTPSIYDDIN
Sequence of human GST-USP22 with Sgf11, Sgf73 1-105 and Sus1 (O15265 1-105 partner limits assumed): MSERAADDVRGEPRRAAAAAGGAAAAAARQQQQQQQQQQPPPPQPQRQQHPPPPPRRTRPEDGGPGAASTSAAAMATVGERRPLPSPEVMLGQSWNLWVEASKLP
Sequence of human GST-USP22 with Sgf11, Sgf73 1-105 and Sus1 (Q9NPA8 whole entry partner): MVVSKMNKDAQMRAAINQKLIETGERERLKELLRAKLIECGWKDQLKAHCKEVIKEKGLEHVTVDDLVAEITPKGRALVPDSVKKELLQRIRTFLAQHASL

N#Cc1c2c(c(Nc3ccccc3)n3c1nc1ccccc13)CCCC2 [USP22i-S02, 11-anilino-7,8,9,10-tetrahydrobenzimidazo[1,2-b]isoquinoline-6-carbonitrile]
FOXP3 MFI in Usp22-KO mice (naïve mice; Usp22-KO mice, 20 μg/kg): no additional decrease to FOXP3 MFI | FOXP3 MFI in Treg cells from spleen and lymph nodes (naïve mice; WT mice, 20 μg/kg): significant drop in FOXP3 MFI | Treg cell death (naïve mice; naïve mice): significantly increased | Treg percentage (naïve mice; naïve mice): decrease in Treg percentage | Treg proliferation (naïve mice; naïve mice): also increased | organ toxicity (comprehensive tissue panel) (naïve mice; naïve mice versus DMSO control): no organ toxicity differences | weights, B cell and Teff cell percentages and proliferation, Teff cell activation (naïve mice; naïve mice versus DMSO-treated control, twice a day for 3 days at 10 μg/kg): little alteration | pIC50 [1]: ~5.33
